Results taken from US11116771B2, “G protein-coupled receptor (GPCR) modulation by imipridones” (Oncoceutics, Inc., priority 2016, dated 2021).
≈ marks a conversion by molar mass, not a printed value. Entries after “also recorded” stand apart in the source; their conditions may differ. Where a name gives a salt, the structure may show the parent alone. Read-outs that look alike come from different tables or passages of the source. One block for each molecule: values may come before it.

Tests used:
[1] = target: DRD2 alanine-scan mutation library (Homo sapiens, UniProt P14416, A177S)
[2] = target: DRD2 alanine-scan mutation library (Homo sapiens, UniProt P14416, C107A)
[3] = target: DRD2 alanine-scan mutation library (Homo sapiens, UniProt P14416, C118A)
Chain of DRD2 alanine-scan mutation library (Homo sapiens, UniProt P14416, C118A) (P14416 whole entry C118A): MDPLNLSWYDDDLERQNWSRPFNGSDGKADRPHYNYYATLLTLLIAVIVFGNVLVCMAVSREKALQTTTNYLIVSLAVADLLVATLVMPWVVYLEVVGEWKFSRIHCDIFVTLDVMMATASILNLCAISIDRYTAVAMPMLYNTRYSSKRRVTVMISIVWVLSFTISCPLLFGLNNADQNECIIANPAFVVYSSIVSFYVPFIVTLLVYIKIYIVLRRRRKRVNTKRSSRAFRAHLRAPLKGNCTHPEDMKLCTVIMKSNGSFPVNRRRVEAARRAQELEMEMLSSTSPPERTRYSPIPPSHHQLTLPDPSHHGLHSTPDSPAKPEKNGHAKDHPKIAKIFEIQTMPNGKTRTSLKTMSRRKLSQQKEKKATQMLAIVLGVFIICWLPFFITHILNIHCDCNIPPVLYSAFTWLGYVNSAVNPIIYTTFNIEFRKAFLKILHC

[4] = target: DRD2 alanine-scan mutation library (Homo sapiens, UniProt P14416, C182A)
Chain of DRD2 alanine-scan mutation library (Homo sapiens, UniProt P14416, C182A) (P14416 whole entry C182A): as the sequence (P14416 whole entry C118A) above, with A118C, C182A counted along it

[5] = target: DRD2 alanine-scan mutation library (Homo sapiens, UniProt P14416, D114A)
[6] = target: DRD2 alanine-scan mutation library (Homo sapiens, UniProt P14416, D80A)
[7] = target: DRD2 alanine-scan mutation library (Homo sapiens, UniProt P14416, E248A)
[8] = target: DRD2 alanine-scan mutation library (Homo sapiens, UniProt P14416, E95A)
[9] = target: DRD2 alanine-scan mutation library (Homo sapiens, UniProt P14416, F189A)
[10] = target: DRD2 alanine-scan mutation library (Homo sapiens, UniProt P14416, F198A)
[11] = target: DRD2 alanine-scan mutation library (Homo sapiens, UniProt P14416, H393A)
[12] = target: DRD2 alanine-scan mutation library (Homo sapiens, UniProt P14416, I122A)
[13] = target: DRD2 alanine-scan mutation library (Homo sapiens, UniProt P14416, I128A)
[14] = target: DRD2 alanine-scan mutation library (Homo sapiens, UniProt P14416, I184A)
Chain of DRD2 alanine-scan mutation library (Homo sapiens, UniProt P14416, I184A) (P14416 whole entry I184A): as the sequence (P14416 whole entry C118A) above, with A118C, I184A counted along it

[15] = target: DRD2 alanine-scan mutation library (Homo sapiens, UniProt P14416, I377A)
[16] = target: DRD2 alanine-scan mutation library (Homo sapiens, UniProt P14416, I394A)
[17] = target: DRD2 alanine-scan mutation library (Homo sapiens, UniProt P14416, I397A)
[18] = target: DRD2 alanine-scan mutation library (Homo sapiens, UniProt P14416, L125A)
[19] = target: DRD2 alanine-scan mutation library (Homo sapiens, UniProt P14416, L81A)
[20] = target: DRD2 alanine-scan mutation library (Homo sapiens, UniProt P14416, N23A)
Chain of DRD2 alanine-scan mutation library (Homo sapiens, UniProt P14416, N23A) (P14416 whole entry N23A): as the sequence (P14416 whole entry C118A) above, with N23A, A118C counted along it

[21] = target: DRD2 alanine-scan mutation library (Homo sapiens, UniProt P14416, R132A)
Chain of DRD2 alanine-scan mutation library (Homo sapiens, UniProt P14416, R132A) (P14416 whole entry R132A): as the sequence (P14416 whole entry C118A) above, with A118C, R132A counted along it

[22] = target: DRD2 alanine-scan mutation library (Homo sapiens, UniProt P14416, S121A)
[23] = target: DRD2 alanine-scan mutation library (Homo sapiens, UniProt P14416, S193A)
Chain of DRD2 alanine-scan mutation library (Homo sapiens, UniProt P14416, S193A) (P14416 whole entry S193A): as the sequence (P14416 whole entry C118A) above, with A118C, S193A counted along it

[24] = target: DRD2 alanine-scan mutation library (Homo sapiens, UniProt P14416, S197A)
Chain of DRD2 alanine-scan mutation library (Homo sapiens, UniProt P14416, S197A) (P14416 whole entry S197A): as the sequence (P14416 whole entry C118A) above, with A118C, S197A counted along it

[25] = target: DRD2 alanine-scan mutation library (Homo sapiens, UniProt P14416, S419A)
[26] = target: DRD2 alanine-scan mutation library (Homo sapiens, UniProt P14416, S7A)
[27] = target: DRD2 alanine-scan mutation library (Homo sapiens, UniProt P14416, T119A)
[28] = target: DRD2 alanine-scan mutation library (Homo sapiens, UniProt P14416, T165A)
Chain of DRD2 alanine-scan mutation library (Homo sapiens, UniProt P14416, T165A) (P14416 whole entry T165A): as the sequence (P14416 whole entry C118A) above, with A118C, T165A counted along it

[29] = target: DRD2 alanine-scan mutation library (Homo sapiens, UniProt P14416, T205A)
[30] = target: DRD2 alanine-scan mutation library (Homo sapiens, UniProt P14416, V190A)
Chain of DRD2 alanine-scan mutation library (Homo sapiens, UniProt P14416, V190A) (P14416 whole entry V190A): as the sequence (P14416 whole entry C118A) above, with A118C, V190A counted along it

[31] = target: DRD2 alanine-scan mutation library (Homo sapiens, UniProt P14416, V196A)
[32] = target: DRD2 alanine-scan mutation library (Homo sapiens, UniProt P14416, V83A)
[33] = target: DRD2 alanine-scan mutation library (Homo sapiens, UniProt P14416, V91A)
Chain of DRD2 alanine-scan mutation library (Homo sapiens, UniProt P14416, V91A) (P14416 whole entry V91A): as the sequence (P14416 whole entry C118A) above, with V91A, A118C counted along it

[34] = target: DRD2 alanine-scan mutation library (Homo sapiens, UniProt P14416, W386A)
[35] = target: DRD2 alanine-scan mutation library (Homo sapiens, UniProt P14416, Y192A)
Chain of DRD2 alanine-scan mutation library (Homo sapiens, UniProt P14416, Y192A) (P14416 whole entry Y192A): as the sequence (P14416 whole entry C118A) above, with A118C, Y192A counted along it

[36] = target: DRD2 alanine-scan mutation library (Homo sapiens, UniProt P14416, Y199A)
[37] = target: DRD2 alanine-scan mutation library (Homo sapiens, UniProt P14416, Y416A)
[38] = tested on: Staphylococcus aureus ATCC# 6538
[39] = tested on: Pseudomonas aeruginosa ATCC# 9027; conditions: 1:300 with TSB Mod Dilution; inoculum count 28
[40] = tested on: Bacillus subtilis ATCC# 6633; conditions: 1:300 with TSB Mod Dilution; inoculum count 52
[41] = tested on: Candida albicans ATCC# 10231; conditions: 1:300 with TSB Mod Dilution
[42] = tested on: Aspergillus brasiliensis ATCC# 16404; conditions: 1:300 with TSB Mod Dilution
human cancer cells = test: Viability of human cancer cells at 72 hours post-treatment; format: cell-based; conditions: relative to the potency of ONC201; viability of human cancer cells at 72 hours post-treatment
MV411 AML cells = test: Cell viability, MV411 AML cells; format: cell-based
MOLM14 AML cells = test: Cell viability, MOLM14 AML cells; format: cell-based; conditions: Homo sapiens, MOLM-14, 5 nM-5 μM, 72 h, n=3
K562 (CML) = test: Cell viability, K562; format: cell-based; conditions: Homo sapiens, 5 nM-5 μM, 72 h, n=3
[43] = tested on: MHH-ES-1 (Ewing's sarcoma); test: Cell viability, MHH-ES-1; format: cell-based; conditions: Homo sapiens, 5 nM-5 μM, 72 h, n=3
[44] = tested on: Ewing's sarcoma cell lines; test: Anti-cancer efficacy in Ewing's sarcoma cell lines; format: cell-based; conditions: 16 Ewing's sarcoma cell lines (FIG. 20)
[45] = tested on: NCI60 cancer cell line panel; test: NCI60 cancer cell line panel; format: cell-based; conditions: NCI60 panel (FIG. 16)
[46] = Rat non-GLP oral single dose study; format: in vivo; conditions: rat non-GLP oral single dose study
[47] = tested on: DRD2 (short and long isoforms); test: β-arrestin recruitment GPCR reporter assay, DRD2; format: cell-based
[48] = tested on: Staphylococcus aureus ATCC 29213; test: MIC by micro-broth dilution, S. aureus ATCC 29213; format: cell-based; conditions: ATCC29213
[49] = tested on: Staphylococcus aureus ATCC 33591; test: MIC by micro-broth dilution, S. aureus ATCC 33591; format: cell-based; conditions: ATCC33591
[50] = tested on: Staphylococcus aureus ATCC 700699; test: MIC by micro-broth dilution, S. aureus ATCC 700699; format: cell-based; conditions: Staphylococcus aureus, ATCC700699, ATCC 700699 (48 hours)
HFF (Normal Fibroblast) = test: Cell viability, HFF normal fibroblasts

- Calcium Flux as a % of flux with WT DRD2 (100), Dopamine 1 nM [1]: 85%
- Calcium Flux % WT [2]: 20 % WT
- Calcium Flux % WT [3]: 14 % WT
- Calcium Flux % WT [4]: 0 % WT
- Calcium Flux % WT [5]: 4 % WT
- Calcium Flux % WT [6]: 3 % WT
- Calcium Flux % WT [7]: 19 % WT
- Calcium Flux as a % of flux with WT DRD2 (100), Dopamine 1 nM [8]: 123%
- Calcium Flux % WT [9]: 22 % WT
- Calcium Flux % WT [10]: 10 % WT
- Calcium Flux % WT [11]: 4 % WT
- Calcium Flux % WT [12]: 23 % WT
- Calcium Flux % WT [13]: 27 % WT
- Calcium Flux % WT [14]: 0 % WT
- Calcium Flux % WT [15]: 11 % WT
- Calcium Flux % WT [16]: 16 % WT
- Calcium Flux as a % of flux with WT DRD2 (100), Dopamine 1 nM [17]: 105%
- Calcium Flux % WT [18]: 25 % WT
- Calcium Flux as a % of flux with WT DRD2 (100), Dopamine 1 nM [19]: 83%
- Calcium Flux % WT [20]: 25 % WT
- Calcium Flux % WT [21]: 3 % WT
- Calcium Flux % WT [22]: 16 % WT
- Calcium Flux % WT [23]: 1 % WT
- Calcium Flux % WT [24]: 0 % WT
- Calcium Flux % WT [25]: 20 % WT
- Calcium Flux % WT [26]: 15 % WT
- Calcium Flux % WT [27]: 1 % WT
- Calcium Flux as a % of flux with WT DRD2 (100), Dopamine 1 nM [28]: 92%
- Calcium Flux % WT [29]: 24 % WT
- Calcium Flux % WT [30]: 20 % WT
- Calcium Flux as a % of flux with WT DRD2 (100), Dopamine 1 nM [31]: 119%
- Calcium Flux % WT [32]: 10 % WT
- Calcium Flux as a % of flux with WT DRD2 (100), Dopamine 1 nM [33]: 119%
- Calcium Flux % WT [34]: 15 % WT
- Calcium Flux as a % of flux with WT DRD2 (100), Dopamine 1 nM [35]: 64%
- Calcium Flux % WT [36]: 20 % WT
- Calcium Flux % WT [37]: 12 % WT
Structure (SMILES): NCCc1ccc(O)c(O)c1 [Dopamine, dopamine]

Structure (SMILES): Cc1ccccc1CN1C(=O)C2=C(CCN(Cc3ccccc3)C2)N2CCN=C12 [ONC201 dihydrochloride]
- Indicator Organisms Count, Sa [38]: 0
- Indicator Organisms Count, Pa [39]: 24
- Indicator Organisms Count, Bs [40]: 48
- Indicator Organisms Count, Ca (TSA) ([41]; inoculum count 48): 51
- Indicator Organisms Count, CA (SDA) ([41]; inoculum count 52): 46
- Indicator Organisms Count, Ab (SDA) ([42]; inoculum count 20): 19
- Indicator Organisms Count, Ab (TSA) ([42]; inoculum count 21): 18

Structure (SMILES): O=C1C2=C(CCN(Cc3ccccc3)C2)N2CCN=C2N1Cc1ccc(F)cc1F [ONC206]
- Relative Potency* (human cancer cells): A (A Indicates a potency increase of >2-fold of ONC201)
- IC50 (MV411 AML cells; Homo sapiens, MV4-11, MV411, 5 nM-5 μM, 72 h, n=3): 200 nM
- fold improvement compared to ONC201 in in vitro potency (MV411 AML cells; cell lines of Table 12): up to 20 fold
- IC50 (MOLM14 AML cells): 270 nM
- IC50 (K562 (CML)): 220 nM
- IC50 [43]: 610 nM
- anti-cancer efficacy [44]: nanomolar range in 14 out of 16; also recorded: superior efficacy compared to ONC201 in all cell lines
- anti-cancer efficacy across tumor types [45]: demonstrated anti-cancer efficacy
- NOAEL [46]: 125 mg/kg
- GPCR activity, DRD2 [47]: improved DRD2 antagonism
- MIC ([48]; wild type Staphylococcus aureus (ATCC 29213), read-out: MIC): 6.25 µg/mL (≈ 15.3 µM)
- MIC90 ([48]; Staphylococcus aureus, ATCC 29213, 24 hours, read-out: MIC90): 6.25 µg/mL (≈ 15.3 µM)
- MIC ([48]; Staphylococcus aureus, ATCC 29213, 24 hours, read-out: MIC95): 6.25 µg/mL (≈ 15.3 µM)
- MIC99 ([48]; Staphylococcus aureus, ATCC 29213, 24 hours, read-out: MIC99): 6.25 µg/mL (≈ 15.3 µM)
- MIC ([48]; Staphylococcus aureus, ATCC 29213, 24 hours, read-out: MIC, Visual): 6.25 µg/mL (≈ 15.3 µM)
- MIC ([49]; Staphylococcus aureus (ATCC 33591), methicillin resistant, read-out: MIC): 12.5 µg/mL (≈ 30.6 µM)
- MIC90 ([49]; Staphylococcus aureus, ATCC 33591, 24 hours, read-out: MIC90): 12.5 µg/mL (≈ 30.6 µM)
- MIC ([49]; Staphylococcus aureus, ATCC 33591, 24 hours, read-out: MIC95): 25 µg/mL (≈ 61.2 µM)
- MIC99 ([49]; Staphylococcus aureus, ATCC 33591, 24 hours, read-out: MIC99): > 100 µg/mL
- MIC ([49]; Staphylococcus aureus, ATCC 33591, 24 hours, read-out: MIC, Visual): 12.5 µg/mL (≈ 30.6 µM)
- MIC90 ([50]; read-out: MIC90): 12.5 µg/mL (≈ 30.6 µM)
- MIC ([50]; read-out: MIC95): 12.5 µg/mL (≈ 30.6 µM)
- MIC99 ([50]; read-out: MIC99): 25 µg/mL (≈ 61.2 µM)
- MIC ([50]; read-out: MIC, Visual): 12.5 µg/mL (≈ 30.6 µM)
- IC50 (HFF (Normal Fibroblast); Homo sapiens, Fibroblast, 72 h): > 5000 nM
- in vitro toxicity to normal cells (HFF (Normal Fibroblast); Table 12): no in vitro toxicity to normal cells at therapeutic doses
